# From patent US9593305B2, “Differentiation of pluripotent stem cells” (Janssen Biotech, Inc., priority 2008, dated 2017)
# System: H1 human embryonic stem cells
# Test: Four-step differentiation before transplant, RT-PCR of pancreatic endoderm markers after step 4 (Example 18)
# Assay type: cell-based
# Details: GDF-8 100 ng/ml + 2.5 μM compound in step 1, versus activin A and Wnt3a
# Procedure: The differentiation process was started three days after the cells were seeded onto 6-well plates coated with reduced growth factor […]™. A four-step protocol was used for the in vitro differentiation of H1 human embryonic stem cells to cells expressing markers characteristic of the pancreatic endoderm lineage. Step 1 was conducted over three days to generate definitive endoderm cells. On the first day of step 1, differentiation was initiated by aspirating spent culture medium and adding an equal volume of RPMI-1640 basal medium (Invitrogen; Cat 22400) with 2% Albumin Bovine Fraction V, Fatty Acid Free (FAF BSA) (Proliant Biologicals; Cat #SKU 68700) and 8 ng/ml bFGF. In one treatment group, cells were exposed to 100 ng/ml activin A (PeproTech; Cat #120-14) with 20 ng/ml Wnt3a (R&D Systems; Cat #1324-WN/CF). In a second treatment group, cells were exposed to 100 ng/ml GDF-8 (R&D Systems; Cat #788-G8) with 2.5 μM Compound 40. In a third treatment group, cells were exposed to 100 ng/ml GDF-8 (R&D Systems; Cat #788-G8) with 2.5 μM Compound 202. […]
# Step 4 of the differentiation protocol was conducted over three days. […] On the following day, cells in suspension culture were collected and counted. […]
structure (smiles),measurement,value
"C=CCN1CC(=O)NCCCc2cncc(c2)-c2ncnc(n2)Nc2cccc(c2)C1 [Compound 40, 14-Prop-2-en-1-yl-3,5,7,14,17,23,27-heptaazatetracyclo[19.3.1.1˜2.6˜0.1˜8,12˜]heptacosa-1(25), 2(27), 3,5,8(26), 9,11,21,23-nonaen-16-one]","PE markers CDX2, MAFA, NGN3, NKX6.1, PDX1 and Ptf1 alpha at the conclusion of step 4 (RT-PCR)",expressed equivalent levels of PE markers
